In ChEMBL document CHEMBL4476865, “Neurotrypsin inhibitors” (2013) one finds IC50 and Activity data, which are given here for 2 molecules.

Structures are written as SMILES.

For data set [1], the target named is T1, Neurotrypsin (Homo sapiens, UniProt P56730).
T1 sequence (P56730 whole entry): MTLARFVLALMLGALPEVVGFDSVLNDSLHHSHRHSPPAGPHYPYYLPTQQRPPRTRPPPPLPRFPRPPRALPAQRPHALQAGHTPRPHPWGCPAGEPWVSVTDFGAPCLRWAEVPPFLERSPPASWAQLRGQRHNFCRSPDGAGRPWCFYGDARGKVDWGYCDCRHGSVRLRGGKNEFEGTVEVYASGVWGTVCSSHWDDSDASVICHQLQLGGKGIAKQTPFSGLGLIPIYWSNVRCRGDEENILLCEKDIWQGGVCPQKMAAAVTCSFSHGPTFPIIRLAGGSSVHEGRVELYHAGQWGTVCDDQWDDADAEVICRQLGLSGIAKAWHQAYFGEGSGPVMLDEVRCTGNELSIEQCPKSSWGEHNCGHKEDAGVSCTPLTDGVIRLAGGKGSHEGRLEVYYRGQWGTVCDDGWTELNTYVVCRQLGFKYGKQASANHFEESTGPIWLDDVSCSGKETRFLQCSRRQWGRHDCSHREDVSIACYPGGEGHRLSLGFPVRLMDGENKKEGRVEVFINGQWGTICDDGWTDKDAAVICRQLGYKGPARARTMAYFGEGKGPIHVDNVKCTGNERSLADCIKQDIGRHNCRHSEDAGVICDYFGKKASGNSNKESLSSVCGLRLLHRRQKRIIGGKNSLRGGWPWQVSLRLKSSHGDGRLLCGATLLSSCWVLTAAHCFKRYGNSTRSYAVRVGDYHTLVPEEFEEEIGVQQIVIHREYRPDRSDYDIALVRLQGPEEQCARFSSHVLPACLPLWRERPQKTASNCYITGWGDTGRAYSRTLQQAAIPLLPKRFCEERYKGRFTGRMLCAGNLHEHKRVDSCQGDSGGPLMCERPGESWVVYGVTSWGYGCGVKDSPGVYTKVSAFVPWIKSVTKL
Put plainly: Inhibition of human neurotrypsin.

Data set [2] can be described thus: Inhibition of hog trypsin assessed as reduction in liberation of free para-nitroanilide using S-2222 substrate incubated for 20 to 30 mins. Details: species or system Sus scrofa.
A short description of data set [3]: Toxicity in C57/BL6 mouse assessed as weight loss dosed 3 times at 25 mg/kg, ip equivalent of active ingredient administered with 8 hrs gap between dose 1 and dose 2 and 16 hrs gap between dose 2 and dose 3 (reference value: 5.67%). Format: organism-based. Conditions: in vivo.

A word on the IC50: it is the concentration that gives 50% inhibition. In data set [1], `O=C(NCc1ccc(Cl)s1)c1ccc(NC(=O)c2ccc(-c3nc4cc(Cl)c(Cl)cc4[nH]3)cc2)c(C(=O)O)c1` gave an IC50 of 3.3 µM.
Consider `NCCCC[C@H](N)C(=O)O.O=C(Nc1ccc(Cl)cc1)c1ccc(NC(=O)c2ccc(-c3nc4cc(Cl)c(Cl)cc4[nH]3)cc2)c(C(=O)O)c1`, for which, in data set [2], the IC50 is more than 150 µM. Also, the Activity in data set [3] worked out at 5.52%.
